Legend:
[1] = Plasma concentrations of oxycodone, oxymorphone, noroxycodone, naltrexone and 6β-naltrexol by solid phase extraction LC-MS/MS
Description: Patients with moderate-to-severe pain due to osteoarthritis of the hip or knee were randomly assigned to one of four treatment groups as shown in Table 3 of Example 1. Plasma samples were obtained for each patient at the beginning of Weeks 1, 2, 3 and at the end of dosing during Week 3.
For the analysis of linearity and dose proportionality, linear equation coefficients were obtained by averaging patient-specific slopes and intercepts obtained by within-patient least squares regression. This was done to account for the correlation among the repeated measurements due to the patient's contributing data at each dose level. The resulting slopes among treatment groups were compared by one-way analysis of variance (ANOVA), and a one-sample t-test assessed the common slope's difference from zero. A measure of deviation from linearity was constructed as the difference between the concentration at the middle dose versus the average of the concentrations at the lower and higher doses. Due to equal spacing of doses, this measure has expectation zero under the hypothesis of linearity. As above, ANOVA and t-tests were used to assess linearity.
To achieve symmetry, modified log transformations were used.

[2] = test system: patients with moderate to severe chronic pain due to osteoarthritis of the hip or knee; assay: Emax composite model of 6β-naltrexol plasma concentration versus percent change in pain intensity; conditions: for EC51 Estimate / EC52 Estimate / Emax1 Estimate / Emax2 Estimate: WinNonlin
Description: As discussed in more detail below, the percent change in pain intensity was the drug effect used in a modeling analysis of plasma concentration vs. drug effect.
The plasma concentration-effect data were fit to the Emax composite model using the software program WinNonlin®(commercially available from Pharsight Corporation of Mountain View, Calif.) and the command files developed by Gabrielsson et al. The plasma concentration-effect data represented as circles in FIG. 11 were evaluated mathematically and the plasma concentration-effect curve shown in FIG. 11 was determined by the program and command files. Similarly, the program and command files were used to determine the plasma concentration-effect curve shown in FIG. 12 based on the data represented as circles in FIG. 12.
The computer output (printout) of this process included EC51 and EC52 parameters, as well as parameters reflecting statistical evaluation of the data, such as coefficient of variation (CV %).
These parameters are based on the data for 6β-naltrexol plasma concentrations and reduction in pain from baseline pain intensity to final pain intensity from all subjects for whom plasma concentration data was obtained as described herein. These parameters are based on data from subjects receiving the BID dosing regimens and subjects receiving the QID dosing regimen. Estimate refers to the value estimated by the WinNonlin® program and command file for relating plasma concentrations to the pharmacodynamic effects such as percent reduction in pain intensity.
These parameters are based on the data (6β-naltrexol plasma concentrations and percent reduction in pain intensity) for subjects receiving BID dosing regimens.

[3] = naltrexone hydrochloride in solution mixed with croscarmellose sodium in suspension; cited from earlier work
[4] = Total (BID and QID) data, curve of FIG. 11

In the case of `Oc1ccc2c3c1O[C@H]1[C@H](O)CC[C@@]4(O)[C@@H](C2)N(CC2CC2)CC[C@]314` [6β-naltrexol], the “Plasma concentrations over the course of the study (sampled at the end of each treatment week)” value ([1]; FIG. 7, combination drug BID and QID) is reported as “remained constant throughout the study”, the “EC51 Estimate” value ([2]; BID data, curve of FIG. 12) is reported as 14.0 pg/mL and the “EC52 Estimate” value ([2]; BID data, curve of FIG. 12) is reported as 0.422 pg/mL. For the same compound, the “Emax1 Estimate” value ([2]; BID data, curve of FIG. 12) was 27.0 units, the “Emax2 Estimate” value ([2]; BID data, curve of FIG. 12) was 76.3 units and the “EC52 parameter, 6β-naltrexol plasma concentration” value ([2]; Emax composite model, total (BID and QID) data, Table 26, effect = percent reduction in pain intensity, 6β-naltrexol as surrogate for naltrexone) was “about 0.439 μg/ml”. For the same compound, the “EC51 Estimate” value [2, 4] was 14.4 pg/mL, the “EC52 Estimate” value [2, 4] was 0.439 pg/mL and the “Emax1 Estimate” value [2, 4] was 26.8 units. The “Emax2 Estimate” value [2, 4] was 79.7 units.

For `O=C1CC[C@@]2(O)[C@H]3Cc4ccc(O)c5c4[C@@]2(CCN3CC2CC2)[C@H]1O5` [naltrexone], the “Fraction of naltrexone hydrochloride bound by croscarmellose sodium” value [3] is listed as “more than 90%”.

In the case of `CN1CC[C@]23c4c5ccc(O)c4O[C@H]2C(=O)CC[C@@]3(O)[C@H]1C5` [oxymorphone], the “Mean plasma concentration versus dose level over the course of the study” value ([1]; FIGS. 1 and 2) is reported as “increased linearly with increasing dose levels”, the “Plasma concentration of oxymorphone (ng/mL) versus dose of oxycodone (mg/day): slope of linear equation” value ([1]; average of patient-specific regressions, slope p<0.001, t-test) is reported as 0.007153 and the “Plasma concentration of oxymorphone versus dose of oxycodone (mg/day): intercept of linear equation” value ([1]; average of patient-specific within-patient least squares regressions, all active treatments) is reported as 0.0607 ng/mL.

Reference: patent US20060009478A1, “Methods for the treatment of back pain” (priority 2003, published 2006)
